Reference: patent US20240166690A1, “MULTI-TARGET CY[…] FOR OPIOID/NEUROPEPTIDE FF RECEPTORS, AND PREPARATION THEREFOR AND APPLICATION THEREOF” (SHANGHAI TIANCI LIFE SCIENCE DEVELOPMENT CO., LTD., priority 2021, published 2024)
Bridge positions count the residues as written; N and C are the ends. Square brackets hold non-standard residues; d marks the D form. Ends that are not written are not given here. Peptide text beside a SMILES is read from it. NMeF = CN[C@@H](Cc1ccccc1)C(=O)O; dOrn = NCCC[C@@H](N)C(=O)O; dDab = NCC[C@@H](N)C(=O)O

How the values were obtained:
[1] = target: T1, Mu-opioid receptor (Homo sapiens, UniProt P35372); assay: cAMP functional experiment, Mu-opioid receptor (forskolin-induced cAMP accumulation); assay type: cell-based
T1 construct: expressed in transfected cells; host or cells: HEK293
Protocol: (§1) The agonistic activity of the cyclopeptide molecule of the present invention against Mu-opioid receptor, Delta-opioid receptor, Kappa-opioid receptor, NPFF1 receptor and NPFF2 receptor was evaluated by detecting the regulation of the cyclopeptide molecule of the present invention on the intracellular accumulation of cyclic adenosine monophosphate (cAMP) induced by Forskolin in HEK293 cells stably expressing these five receptors. The experimental method was: the cells were seeded in 24 well plates with 120000 cells per well, and were cultured for more than 20 hours. At the beginning of the experiment, the culture medium in the culture dish was suck out, and then 500 μL of preheated serum-free medium containing 1 mM of IBMX was added, the mixture was incubated at 37° C. for 10 minutes. Then each 10 μL of the drug to be tested and 10 μM of forskolin (final concentration) were added to each well. The mixture was incubated at 37° C. for 30 minutes. After incubation, all the liquid was suck out from the culture dish, 500 μL of 0.2 N hydrochloric acid was added to each well, the mixture was incubated at room temperature for 30 minutes to promote cell lysis. After lysis was complete, NaOH was added to neutralize the hydrochloric acid solution used for lysis. Then all the liquid was suck out from the culture dish into centrifuge tubes, the liquid was centrifuged at 12000 rpm for 2 minutes. 50 μL was taken to a clean centrifuge tube, 100 μL of 60 μg/μL PKA was added, and 100 μL of TE cAMP buffer was added to the blank control group (B). Another 50 μL of 0.5 μ Ci[^3H]cAMP was added to each of the above centrifuge tubes, the mixture was quickly mixed and incubated at 4° C. for more than 2 hours. After incubation, another 100 μL of activated carbon suspension was added to each tube, the mixture was vortex agitated evenly, placed in an ice bath for 1 minute, centrifuged at 5000 rpm for 4 minutes. 200 μL of supernatant after centrifugation in each tube was suck out to a 24 well plate, with an additional 700 μL of scintillator liquid added per well, then the 24 well plate was sealed with adhesive film, placed for 3 hours, then placed on the scintillation instrument for measurement.
(§2) The inhibitory effect of cAMP was represented by the percentage (% control) of drug inhibition of intracellular cAMP accumulation induced by Forskolin, wherein % control=(cAMP content when treated with Forskolin−cAMP content when Forskolin co-treated with the test drug)/(cAMP content when treated with Forskolin−cAMP content when treated with solvent). The related % control data was represented by mean±S.E.M. The dose-effect relationship of the drug was statistically analyzed using a nonlinear regression model, and the IC50 values of the multi-target cyclopeptide molecule on inhibition of Forskolin induced intracellular cAMP accumulation were calculated using the statistical software GraphPad Prism version 5.0.

[2] = target: T2, Kappa-opioid receptor (Homo sapiens, UniProt P41145); assay: cAMP functional experiment, Kappa-opioid receptor (forskolin-induced cAMP accumulation); assay type: cell-based
T2 construct: expressed in transfected cells; host or cells: HEK293
Protocol: as §1, §2

[3] = target: T3, Delta-opioid receptor (Homo sapiens, UniProt P41143); assay: cAMP functional experiment, Delta-opioid receptor (forskolin-induced cAMP accumulation); assay type: cell-based
T3 construct: expressed in transfected cells; host or cells: HEK293
Protocol: as §1, §2

[4] = target: T4, NPFF1 receptor (Homo sapiens, UniProt Q9GZQ6); assay: cAMP functional experiment, NPFF1 receptor (forskolin-induced cAMP accumulation); assay type: cell-based
T4 construct: expressed in transfected cells; host or cells: HEK293
Protocol: as §1, §2

[5] = target: T5, NPFF2 receptor (Homo sapiens, UniProt Q9Y5X5); assay: cAMP functional experiment, NPFF2 receptor (forskolin-induced cAMP accumulation); assay type: cell-based
T5 construct: expressed in transfected cells; host or cells: HEK293
Protocol: as §1, §2

[6] = system: Kunming male mice; assay: Photothermal tail flick experiment, subcutaneous injection; assay type: in vivo; conditions: for ED50 value (95% confidence interval), analgesic activity: photothermal tail flick
Protocol: (§3) Two administration methods were used: peripheral subcutaneous administration and oral administration. Subsequently, the analgesic activity of the drug was studied using an acute pain model of photothermal tail flick in mice.
Subcutaneous administration on the back was chosen for subcutaneous administration (s.c.). A sterile 1 mL syringe was used and the drug with the volume of 0.1 mL/10 g was injected for administration. The back skin was grasped with the right hand, the needle was tilted in, and the drug was injected subcutaneously into the mouse's back. After the needle was inserted, shook it left and right, and observe to confirm that the needle had indeed entered the subcutaneous area to prevent the needle from puncturing the skin and leaking the drug.
(§4) The photothermal tail flick experiment is based on the experimental method summarized by D'Amour and Smith to optimize the experimental parameters. The experiment selected Kunming male mice with body weigh 21±2 g, and ambient temperature controlled at 22±2° C. The experimental mice were allowed to drink water freely and were moved from the breeding room to the experimental area for adaptation for 30 minutes before starting the experiment. Then the mice were grab with the right hand and the tail hang freely. Then the mice's tail were placed on a radiation light source, 2-3 mm away from the mice tail. The intensity of radiation heat was adjusted to the tail flick time of mice being 3-5 s, which is the basic pain threshold of photothermal tail flick. The irradiation time of the mice tail should not exceed 10 s to prevent scalding of the mice tail, which was the maximum latency for photothermal tail flick. After administration, time points of 10, 20, 30, 45, 60, 90, 120, 180, 240, 300, 360, and 420 minutes were selected to measure the tail flick latency of mice after administration.
(§5) The analgesic effect of drugs was generally evaluated using the maximum analgesic effect MPE (%), MPE (%)=100×[(pain threshold after administration−basic pain threshold)/(10 seconds−basic pain threshold)]. 50% effective dose (ED50) refers to the corresponding drug dose that causes a 50% effect. ED50 and 95% confidence interval were calculated using MPE (%) and the drug concentration that achieves the maximum analgesic effect MPE (%) by the statistical software GraphPad Prism 5.0. The difference in analgesic effects was statistically analyzed using one-way ANOVA (Dunnett test), *P<0.05, **P<0.01, and ***P<0.001 indicated significance of the difference between the group with only drug injected and the saline group.

[7] = system: Kunming male mice; assay: Photothermal tail flick experiment, oral administration; assay type: in vivo; conditions: tail flick; for Maximum analgesic time: oral administration at the maximum analgesic dose
Protocol: as §3
1 mL sterile syringe was used for oral administration (p.o.), the pinhead was replaced with a mouse gastric lavage needle, and […] of the drug was orally administered. The skin on the neck and back of the mouse was grasped with the left hand with the abdomen facing upwards. Noted that the mouse's entire body was fixed to vertical, which was beneficial for oral gavage. A gastric lavage needle (No. 12 needle and 1 mL syringe) was held in the right hand and was inserted to the esophagus along the upper jaw which is pressed the tongue tightly from the corner of the mouse's mouth. Gastric lavage fluid can be injected when the needle inserted 2.5 cm. The inserting length of the needle should be determined through practice in advance, as there is a sense of falling into a hole after the needle is inserted. If the injection position was appropriate, it should be very smooth. […] This can cause immediate death of the mouse after gavage.
as §4, §5

T5 sequence (Q9Y5X5 whole entry): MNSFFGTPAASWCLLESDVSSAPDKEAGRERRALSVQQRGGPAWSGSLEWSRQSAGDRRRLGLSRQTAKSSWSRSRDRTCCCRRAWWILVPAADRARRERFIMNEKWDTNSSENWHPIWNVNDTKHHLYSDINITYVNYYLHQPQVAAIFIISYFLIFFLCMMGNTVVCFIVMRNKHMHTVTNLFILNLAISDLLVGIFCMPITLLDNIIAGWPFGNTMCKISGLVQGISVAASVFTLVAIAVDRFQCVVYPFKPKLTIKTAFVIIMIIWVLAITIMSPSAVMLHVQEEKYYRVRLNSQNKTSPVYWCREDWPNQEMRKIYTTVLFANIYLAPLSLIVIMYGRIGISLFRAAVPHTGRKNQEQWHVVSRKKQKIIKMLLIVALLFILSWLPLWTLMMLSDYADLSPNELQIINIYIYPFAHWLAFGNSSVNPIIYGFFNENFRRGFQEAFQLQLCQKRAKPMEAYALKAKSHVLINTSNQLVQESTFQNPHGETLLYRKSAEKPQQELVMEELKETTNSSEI
T3 sequence (P41143 whole entry): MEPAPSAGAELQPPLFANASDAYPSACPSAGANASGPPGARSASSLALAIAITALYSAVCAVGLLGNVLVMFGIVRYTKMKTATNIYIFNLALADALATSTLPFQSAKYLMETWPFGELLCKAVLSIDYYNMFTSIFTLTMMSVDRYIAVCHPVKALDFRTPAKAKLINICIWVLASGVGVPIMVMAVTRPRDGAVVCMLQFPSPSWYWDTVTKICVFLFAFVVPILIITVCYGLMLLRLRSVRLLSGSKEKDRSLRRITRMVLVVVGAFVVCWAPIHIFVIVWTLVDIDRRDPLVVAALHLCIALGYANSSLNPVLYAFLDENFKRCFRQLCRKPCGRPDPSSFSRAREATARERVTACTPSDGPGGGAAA
T4 sequence (Q9GZQ6 whole entry): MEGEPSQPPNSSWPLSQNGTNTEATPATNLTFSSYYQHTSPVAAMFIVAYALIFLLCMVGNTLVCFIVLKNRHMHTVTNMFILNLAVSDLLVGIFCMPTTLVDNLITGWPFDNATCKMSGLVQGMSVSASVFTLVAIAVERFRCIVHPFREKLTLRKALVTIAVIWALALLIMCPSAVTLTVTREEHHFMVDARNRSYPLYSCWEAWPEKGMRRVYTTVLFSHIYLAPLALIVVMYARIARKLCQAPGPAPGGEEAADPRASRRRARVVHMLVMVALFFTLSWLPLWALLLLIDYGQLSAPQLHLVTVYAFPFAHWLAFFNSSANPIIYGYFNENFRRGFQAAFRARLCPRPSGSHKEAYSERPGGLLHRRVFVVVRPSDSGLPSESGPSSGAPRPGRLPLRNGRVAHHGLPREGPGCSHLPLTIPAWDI
T1 sequence (P35372 whole entry): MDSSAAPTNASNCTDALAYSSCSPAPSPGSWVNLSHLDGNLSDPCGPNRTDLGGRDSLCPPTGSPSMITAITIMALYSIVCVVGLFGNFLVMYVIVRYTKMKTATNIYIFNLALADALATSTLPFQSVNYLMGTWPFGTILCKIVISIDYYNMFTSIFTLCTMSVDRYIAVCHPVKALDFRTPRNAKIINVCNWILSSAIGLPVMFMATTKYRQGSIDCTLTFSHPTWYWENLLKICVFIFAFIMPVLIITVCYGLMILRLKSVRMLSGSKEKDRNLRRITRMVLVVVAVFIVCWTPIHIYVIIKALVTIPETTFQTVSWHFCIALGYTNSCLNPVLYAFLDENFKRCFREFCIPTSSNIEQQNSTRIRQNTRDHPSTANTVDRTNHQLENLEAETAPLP
T2 sequence (P41145 whole entry): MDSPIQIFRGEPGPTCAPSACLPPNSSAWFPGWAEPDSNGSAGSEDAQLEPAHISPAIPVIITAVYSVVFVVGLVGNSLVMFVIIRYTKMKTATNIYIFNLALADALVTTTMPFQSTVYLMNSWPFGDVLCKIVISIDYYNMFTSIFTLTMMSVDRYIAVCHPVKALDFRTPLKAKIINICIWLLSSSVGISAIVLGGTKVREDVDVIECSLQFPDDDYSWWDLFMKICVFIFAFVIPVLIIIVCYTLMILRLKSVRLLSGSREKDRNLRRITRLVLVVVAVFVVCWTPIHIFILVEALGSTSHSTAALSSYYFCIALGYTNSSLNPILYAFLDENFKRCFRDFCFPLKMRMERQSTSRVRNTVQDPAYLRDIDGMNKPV

Row | Compound | IC50 [1] [nM] | IC50 [2] [nM] | IC50 [3] [nM] | IC50 [4] [nM] | IC50 [5] [nM] | ED50 value (95% confidence interval), analgesic activity [6] | Maximum analgesic time [7] [min] | analgesic duration ([7]; oral administration) [min] | effective analgesic actuation duration ([6]; tail flick) [min] | oral analgesic activity ([7]; oral administration)
1 | CN1C(=O)CNC(=O)[C@H](NC(=O)[C@@H](N)Cc2ccc(O)cc2)CCCCNC(=O)CC[C@@H](C(=O)N2CCC[C@H]2C(=O)N[C@@H](CCC(N)=O)C(=O)N[C@@H](CCCNC(=N)N)C(=O)N[C@@H](Cc2ccccc2)C(N)=O)NC(=O)[C@@H]1Cc1ccccc1 [Compound 2, Tyr-c^[2,5][D-Lys-Gly-NMe-Phe-Glu]-Pro-Gln-Arg-Phe-NH2] (H-Y[dK]G[NMeF]EPQRF-NH2; lactam 2-5) | 48.8 | 29.5 | 36.4 | 189 | 83.1 | 17.9 (15.3 to 20.9) μg/kg | 30 | 240 |  | 
2 | CN1C(=O)CNC(=O)[C@@H](NC(=O)[C@@H](N)Cc2ccc(O)cc2)CCCCNC(=O)C[C@@H](C(=O)N2CCC[C@H]2C(=O)N[C@@H](CCC(N)=O)C(=O)N[C@@H](CCCNC(=N)N)C(=O)N[C@@H](Cc2ccccc2)C(N)=O)NC(=O)[C@@H]1Cc1ccccc1 [Compound 3, Tyr-c^[2,5][Lys-Gly-NMe-Phe-Asp]-Pro-Gln-Arg-Phe-NH2] (H-YKG[NMeF]DPQRF-NH2; lactam 2-5) | 70.7 | 320 | 28.2 | 28.9 | 112 | 25.4 (22.1 to 29.2) μg/kg | 20 | 240 |  | 
3 | CN1C(=O)CNC(=O)[C@@H](NC(=O)[C@@H](N)Cc2ccc(O)cc2)CCCCNC(=O)C[C@H](C(=O)N2CCC[C@H]2C(=O)N[C@@H](CCC(N)=O)C(=O)N[C@@H](CCCNC(=N)N)C(=O)N[C@@H](Cc2ccccc2)C(N)=O)NC(=O)[C@@H]1Cc1ccccc1 [Compound 4, Tyr-c^[2,5][Lys-Gly-NMe-Phe-D-Asp]-Pro-Gln-Arg-Phe-NH2] (H-YKG[NMeF][dD]PQRF-NH2; lactam 2-5) | 166 |  | 923 | 104 | 81.5 | 30.3 (19.4 to 47.1) μg/kg | 20 | 240 |  | 
4 | CN1C(=O)CNC(=O)[C@H](NC(=O)[C@@H](N)Cc2ccc(O)cc2)CCCCNC(=O)C[C@H](C(=O)N2CCC[C@H]2C(=O)N[C@@H](CCC(N)=O)C(=O)N[C@@H](CCCNC(=N)N)C(=O)N[C@@H](Cc2ccccc2)C(N)=O)NC(=O)[C@@H]1Cc1ccccc1 [Compound 5, Tyr-c^[2,5][D-Lys-Gly-NMe-Phe-D-Asp]-Pro-Gln-Arg-Phe-NH2] (H-Y[dK]G[NMeF][dD]PQRF-NH2; lactam 2-5) | 586 |  | 345 | 528 | 190 | 23.2 (19.1 to 28.2) μg/kg | 20 | 240 |  | 
5 | CN1C(=O)CNC(=O)[C@H](NC(=O)[C@@H](N)Cc2ccc(O)cc2)CC(=O)NCCCC[C@@H](C(=O)N2CCC[C@H]2C(=O)N[C@@H](CCC(N)=O)C(=O)N[C@@H](CCCNC(=N)N)C(=O)N[C@@H](Cc2ccccc2)C(N)=O)NC(=O)[C@@H]1Cc1ccccc1 [Compound 6, Tyr-c^[2,5][D-Asp-Gly-NMe-Phe-Lys]-Pro-Gln-Arg-Phe-NH2] (H-Y[dD]G[NMeF]KPQRF-NH2; lactam 2-5) | 66.3 | 58 | 74.2 | 222 | 303 | 15.8 (14.6 to 17.1) μg/kg | 30 | 240 |  | 
6 | CN1C(=O)CNC(=O)[C@H](NC(=O)[C@@H](N)Cc2ccc(O)cc2)CCCNC(=O)C[C@@H](C(=O)N2CCC[C@H]2C(=O)N[C@@H](CCC(N)=O)C(=O)N[C@@H](CCCNC(=N)N)C(=O)N[C@@H](Cc2ccccc2)C(N)=O)NC(=O)[C@@H]1Cc1ccccc1 [Compound 8, Tyr-c^[2,5][D-Orn-Gly-NMe-Phe-Asp]-Pro-Gln-Arg-Phe-NH2] (H-Y[dOrn]G[NMeF]DPQRF-NH2; lactam 2-5) | 168 | 139 | 659 | 439 | 133 | 15.0 (13.8 to 16.4) μg/kg | 30 | 240 |  | 
7 | CN1C(=O)CNC(=O)[C@H](NC(=O)[C@@H](N)Cc2ccc(O)cc2)CCNC(=O)C[C@@H](C(=O)N2CCC[C@H]2C(=O)N[C@@H](CCC(N)=O)C(=O)N[C@@H](CCCNC(=N)N)C(=O)N[C@@H](Cc2ccccc2)C(N)=O)NC(=O)[C@@H]1Cc1ccccc1 [Compound 9, Tyr-c^[2,5][D-Dab-Gly-NMe-Phe-Asp]-Pro-Gln-Arg-Phe-NH2] (H-Y[dDab]G[NMeF]DPQRF-NH2; lactam 2-5) | 37.9 | 71.2 | 95.1 | 180 | 265 | 16.0 (14.4 to 17.6) μg/kg | 30 | 240 |  | 
8 | CN1C(=O)CNC(=O)[C@H](NC(=O)[C@@H](N)Cc2ccc(O)cc2)CCCCNC(=O)C[C@@H](C(=O)NCC(=O)N[C@@H](CCC(N)=O)C(=O)N[C@@H](CCCNC(=N)N)C(=O)N[C@@H](Cc2ccccc2)C(N)=O)NC(=O)[C@@H]1Cc1ccccc1 [Compound 12, Tyr-c^[2,5][D-Lys-Gly-NMe-Phe-Asp]-Gly-Gln-Arg-Phe-NH2] (H-Y[dK]G[NMeF]DGQRF-NH2; lactam 2-5) | 82.6 | 97.4 | 45.2 | 58.6 | 93 |  | 20 | 240 |  | 
9 | Tyr-D-Ala-Gly-NMe-Phe-Gly-Pro-Gln-Arg-Phe-NH2 (Y[dA]G[NMeF]GPQRF-NH2) [DN-9, multi-target parent peptide for opioid receptor/neuropeptide FF receptors, chemical template, reference compound] |  |  |  |  |  | 228 µg/kg | 20 | 90 | 90 | only produces strong analgesic activity at a high-dose of 40 mg/kg
